# Measurements taken from patent US11602530B2, “CRM1 inhibitors for treating epilepsy” (Biogen MA Inc., priority 2016, dated 2023).
# Columns and labels:
# [1] = Body weight of treated mice in the pilocarpine TLE model; assay type: in vivo; conditions: 7.5 mg/kg per os every other day for two weeks
# Method: Following the general procedure described in Example 1 and outlined in FIG. 1, Compound E1 of Table I was administered to mice during the treatment phase at 7.5 mg/kg per os every other day for the two weeks of treatment.
# male NMRI mice = assay: Pilocarpine model of temporal lobe epilepsy (TLE), spontaneous recurrent seizures; assay type: in vivo; conditions: for reduction in seizure activity: 7.5 mg/kg per os every other day for two weeks
# Method: FIG. 1 is a description of a pilocarpine model of temporal lobe epilepsy (TLE) in male NMRI mice. The treatment phase was compound E-1 in Table I administered at 7.5 mg/kg per os or vehicle, every other day for the two week treatment period. Vehicle was 0.6% plasdone PVP K29/32 and 0.6% poloxamer Pluronic F68 in water.
# A well-established pilocarpine model of temporal lobe epilepsy (TLE) that has been recently optimized for mice can be used (Mazzuferi et al., Exp. Neurol. 238:156-67). Status epilepticus (SE) can be initiated with a single 300 mg/kg intraperitoneal (i.p.) injection of pilocarpine in male NMRI mice, 30 min after N-methylscopolamine bromide administration (1 mg/kg; i.p.). Within 10 to 45 min after pilocarpine treatment, animals display generalized tonic-clonic seizures that progress to continuous convulsive activity, i.e. SE. To limit the duration of SE, mice can be injected with a bolus dose of diazepam (10 mg/kg; i.p.) after 3 h. The mice typically show spontaneous recurrent seizures within few days after SE and continue to display them throughout their lifetime.
# A separate cohort of animals (for example, n=40) can then undergo continuous monitoring for spontaneous recurrent seizures during 28 consecutive days beginning 8-10 weeks following pilocarpine induced SE. The seizure monitoring can be performed by simultaneous recording of locomotor activity with a 3D accelerometer and video. This system allows for automated detection of behavioral seizures by analysis of the accelerometry signal. All behavioral seizures can be scored according to the Racine's protocol after detailed review of corresponding video clips by experienced technical personnel. Secondary generalized seizures, a Racine's score of 3-5, will be quantified and used for calculation of total seizure counts. […]
smiles,measurement,setting,value
"CC(C)(C)C(=O)NNC(=O)/C=C\n1cnc(-c2cc(C(F)(F)F)cc(C(F)(F)F)c2)n1 [Compound E-1, (Z)-3-(3-(3,5-bis(trifluoromethyl)phenyl)-1H-1,2,4-triazol-1-yl)-N′-pivaloylacrylohydrazide]",change in body weight of the treated mice,[1],no change
same,reduction in seizure occurrence in comparison to vehicle treated mice,"male NMRI mice; a significant number of mice, chronic administration (FIG. 4)",50%
same,reduction in seizure activity,male NMRI mice; all treated mice (24 dosed),≥ 50%
same,reduction in seizure activity,male NMRI mice; six of the treated mice,100%
